Test results published in PubChem BioAssay AID179 (DTP/NCI, 2004).
Several values for one entry are separate records, joined by “and”; a condition that tells them apart may be missing. Identical values can stand only once. Activity calls are given as the source filed them.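 How the source made its calls: active means compounds giving half or more protection of infected cells from virus-caused growth loss, again on retest; inactive means the rest.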

Tested on: CEM cells HIV-1 protection, formazan growth assay
Experiment: NCI AIDS Antiviral Assay
Conditions: for IC50: measured here: growth of uninfected CEM cells
Experimental: The ability of compounds to protect human CEM cells from HIV-1 infection is measured as a screen for new compounds capable of inhibiting the HIV virus. Five concentrations of drug were tested on uninfected and infected cells and cell growth was measured using a soluble formazan assay. […] Compounds that provided at least 50% protection were retested. Compounds that provided at least 50% protection on retest were listed as moderately active. Compounds that reproducibly provided 100% protection were listed as confirmed active. […] Note that the inability to provide protection could be due to toxicity.

| SMILES | EC50 [µM] | IC50 | outcome |
| --- | --- | --- | --- |
| CCCCN1C(=O)N(c2ccc(OCC)cc2)C2N(CCCC)C1C(C)(C)C2(C)C (stereo unspecified) | > 21.9 | > 21.9 µM | – |
| CCCCCCCCCCCCOP(=O)(O)OP(=O)(O)OCC1OC(n2ccc(N)nc2=O)CC1O (stereo unspecified) | 57.5 | > 100 µM | – |
| COc1cc(/C=C2\CCC(C)C3C2=NN(C(C)=O)C3c2cc(OC)c(OC)c(OC)c2)cc(OC)c1OC (stereo unspecified) | > 100 | > 100 µM | – |
| COc1ccc(OC)c(NC(=O)C(=O)NNC(=O)c2sc(NNC(C)=O)nc2C)c1 | – | – | inactive |
| CO[C@@H]1C2C3c4ccccc4C(c4ccccc43)C2[C@H](OC)[C@H]2OC(c3ccccc3)O[C@H]21 (stereo partly specified) | > 67.6 | > 67.6 µM | – |
| CCCCCC=C(c1cc(Br)cc(C(=O)O)c1OC)c1cc(Br)cc(C(=O)O)c1OC | > 170 | 166 µM | – |
| Cn1c(=O)c2c(n(C)c1=O)n1c(SCc3ccccc3)nnc1n2C | > 200 | 182 µM | – |
| CNC(=O)N(C1=NCC(C)S1)c1ccc(C)c(C)c1 (stereo unspecified) | – | – | inactive |
| COC(=O)CCC1CCc2c(OC)ccc(O)c2C1=O (stereo unspecified) | – | – | inactive |
| c1ccc(C2=NC3(CCCCC3)N=C2c2ccccc2)cc1 | > 200 | 135 µM | – |
| Cc1nn(C)cc1P(=S)(c1ccccc1)c1ccccc1 | > 16.6 | > 16.6 µM | – |
| CN(C)c1ccc(/C=C/C(=O)O)cc1 | > 1150 | > 1150 µM | – |
| CC(C)COP(C)(=O)C(N)(C(F)(F)F)C(F)(F)F (stereo unspecified) | > 200 | > 200 µM | – |
| O=C1CCC/C1=C1/SS/C(=C2/CCCC2=O)S1 | > 200 | 102 µM | – |
| CC(=O)OCCOCN1C(=O)NC(=O)/C(=C/c2cccc(OCc3ccccc3)c2)C1=O | > 200 | 18.2 µM | – |
| O=[N+]([O-])c1cccc2nnccc12 | > 200 | 22.9 µM | – |
| COC(=O)Nc1nc2cc(OC)c(OC)cc2c(=O)[nH]1 | > 200 | 8.71 µM | – |
| COc1cc(C2c3cc4c(cc3[C@H](NS(C)(=O)=O)C3COC(=O)[C@H]23)OCO4)cc(OC)c1OC (stereo partly specified) | – | – | inactive |
| CNC(=O)CCNC(=O)CCC(=O)OC | > 200 | > 200 µM | – |
| Cc1cn(C2OC(CO[Si](C)(C)C(C)(C)C)/C(=C\C#N)C2O[Si](C)(C)C(C)(C)C)c(=O)[nH]c1=O (stereo unspecified) | > 200 | > 200 µM | – |
| CCOC(=O)/C(=C\c1cccc(F)c1)[Se]c1ccccc1 | > 38.9 | > 38.9 µM | – |
| COc1cccc(OC)c1OC(=O)Nc1ccccc1F | > 200 | > 200 µM | – |

| SMILES | EC50 [µM] | IC50 | outcome |
| --- | --- | --- | --- |
| O=c1c2c(oc3ccccc13)-c1ccccc1OC2 | > 200 | > 200 µM | – |
| Cc1ccc(C(=O)Oc2ccccc2)cc1N=NN(C)C | > 25.7 | > 25.7 µM | – |
| Cn1c2ccccc2c2nnc(N/N=C/c3cccnc3)nc21 | > 200 | > 200 µM | – |
| CCOC(=O)C1=C(Nc2ccc(Br)cc2)OC/C1=N\NC(=O)c1ccccc1O | > 38.9 | 3.98 µM | – |
| CC1(CO)OC(n2cnc3cncnc32)CC1O (stereo unspecified) | 18.2 | > 200 µM | – |
| COc1ccc(/C(=N\N=C(N)N)C(c2ccc(OC)cc2)C2OC(=O)c3ccccc32)cc1 (stereo unspecified) | > 3.24 | > 3.24 µM | – |
| O/N=C1\CSc2ccccc2C1 | > 200 | > 200 µM | – |
| CCCCNC(=O)C1C2C=CC(O2)C1C(=O)O (stereo unspecified) | > 200 | > 200 µM | – |
| CNNC1=NS(=O)(=O)c2cc(C(=O)OC)c(Cl)cc2S1 | > 200 | > 200 µM | – |
| N#C/C(=C/n1c(=S)[nH]c2ccccc21)C(N)=O | > 200 | > 200 µM | – |
| COc1c(C(=O)O)cccc1-c1cccc(C(=O)NCCN(CCNC(=O)c2cccc(-c3cccc(C(=O)O)c3OC)c2OC)CCNC(=O)c2cccc(-c3cccc(C(=O)O)c3OC)c2OC)c1OC | > 200 | > 200 µM | – |
| CC(=O)/C=c1\[nH]/c(=C\C=C\c2ccccc2)c(=O)n1/C=C1\C(=O)Oc2ccccc2C1=O | > 200 | 166 µM | – |
| CCOC(=O)C(NC(=O)c1ccccc1)(c1ccc(S(=O)(=O)Nc2onc(C)c2C)cc1)C(F)(F)F (stereo unspecified) | > 200 | > 200 µM | – |
| Cc1nc(-c2ccccc2)cc2c1c(=O)oc1ccccc12 | > 5.01 | > 5.01 µM | – |
| CN(C)c1ccc(/C=C2\C=Cc3ccccc32)cc1F | > 200 | 120 µM | – |
| CC(=O)C1CC[C@@H]2[C@H](CC[C@]3(C)[C@@H](O)CC[C@@H]23)[C@H]1C(=O)O (stereo partly specified) | > 200 | > 200 µM | – |
| O=C(C(=Cc1ccccc1)C(=O)c1ccccc1)c1ccccc1 | > 43.7 | 14.5 µM | – |
| C[CH2][Sn]([CH2]C)([S]CCS(=O)(=O)O)[S]CCS(=O)(=O)O | > 200 | 3.72 µM | – |
| O=C(NC1CC(NC(=O)OCc2ccccc2)C2c3ccccc3C12)OCc1ccccc1 (stereo unspecified) | – | – | inactive |
| O=C1Nc2cnc(Cl)nc2Nc2ccccc21 | > 75.9 | > 75.9 µM | – |
| COc1ccc(/C=C2\CN(C)C/C(=C\c3ccc(OC)c(OC)c3OC)C2=O)c(OC)c1OC | > 2 | 0.331 µM | – |
| C=C1CN(C2=NCCO2)C1 | > 200 | > 200 µM | – |

| SMILES | EC50 [µM] | IC50 | outcome |
| --- | --- | --- | --- |
| C1=NCCNCCN=Cc2ccc(cc2)OCc2cccc(n2)COc2ccc1cc2 | > 100 | > 100 µM | – |
| COc1nc2c(c(=O)n1C)N=C(c1ccccc1)[C@H](C(CC(=O)c1ccccc1)c1ccccc1)C(c1ccccc1)N2 (stereo partly specified) | – | – | inactive |
| CS/C(c1ccccc1)=[N+](/C)[O-] | > 813 | 589 µM | – |
| COc1ccc(NC(=O)CC(=O)NNC(Sc2ccccc2)c2cc(N=Nc3ccc(Br)cc3)ccc2O)cc1 (stereo unspecified) | – | – | inactive |
| N#Cc1c(N)nc(Nc2cccc3ccccc23)c(C#N)c1C#N | – | – | inactive |
| CC(=O)N1CN=C2Sc3ccccc3N2C1 | > 200 | > 200 µM | – |
| O=C(Cc1nc2ccccc2s1)C(=O)Nc1ccccc1C(F)(F)F | > 70.8 | > 70.8 µM | – |
| C/C(=C1/N=C(c2cc([N+](=O)[O-])ccc2Cl)N(c2ccc(Br)cc2)C1=O)c1cc2ccccc2oc1=O | > 24 | – | – |
| Oc1ccc(Br)cc1C=Nc1c(NC2CCCCC2)oc2ccc(Br)cc12 | – | – | inactive |
| O=c1c(-c2ccccc2)c[nH]c2cc([N+](=O)[O-])c(/C(Cl)=C/c3ccccc3)cc12 | – | – | inactive |
| O=C(Nc1cc2cc([N+](=O)[O-])ccc2oc1=O)c1cccs1 | > 61.7 | > 61.7 µM | – |
| CC(=O)C(C)(C)CCC(C)(C)C(C)=O | – | – | inactive |
| CC(=O)Nc1ccc(NS(=O)(=O)c2ccc3nc(C)n(NS(=O)(=O)c4ccc(NC(C)=O)cc4)c(=O)c3c2)cc1 | > 200 | > 200 µM | – |
| CCOc1ccc(NC(=O)/C(CC(=O)c2sc(Nc3ccc(C)cc3)nc2C)=N\NC(N)=S)cc1 | > 200 | > 200 µM | – |
| COC1/C=C/OC2(C)Oc3c(C)c(OC(C)=O)c4c(c3C2=O)C(=O)C=C(NC(=O)/C(C)=C\C=C\C(C)C(OC(C)=O)C(C)C(O)C(C)C(OC(C)=O)C1C)C4=O (stereo unspecified) | > 200 | 3.02 µM | – |
| CN(C)c1ccc(/C=C/c2sc3ccccc3[n+]2C)cc1 | > 47.9 | 0.575 µM | – |
| CC1(C)CC(/C=C2/OC(=O)c3ccccc32)=C(C#N)C(=O)O1 | > 33.9 | > 33.9 µM | – |
| CCCCNC(=O)OCCN=C1c2ccccc2C(Br)C(Br)c2ccccc21 (stereo unspecified) | > 200 | 26.9 µM | – |
| Cc1ccc(SC/C(=C\CS(=O)(=O)c2ccc(C)cc2)S(=O)(=O)c2ccc(Br)cc2)cc1 | – | – | inactive |
| CCC12C=CCN3CC[C@]4(C(=C(C(=O)OC)[C@@H]1Nc1ccn(C5OC(COC(C)=O)C(OC(C)=O)C5OC(C)=O)c(=O)n1)Nc1ccccc14)C32 (stereo partly specified) | > 26.9 | 3.63 µM | – |
| CS(=O)(=O)c1nc(N)nc2nc[nH]c12 | > 200 | > 200 µM | – |
| O=C1NCC2(CCN(CCCC3(c4ccc(F)cc4)OCCO3)CC2)N1c1ccccc1 | > 200 | > 200 µM | – |

| SMILES | EC50 [µM] | IC50 | outcome |
| --- | --- | --- | --- |
| C=C(C)COc1ccc(C2OCC(CC)C(CCC)O2)cc1 (stereo unspecified) | > 200 | 89.1 µM | – |
| [C-]#[O+].[C-]#[O+].[C-]#[O+].[Mo].c1ccc(P(CC[PH+](CC[PH+](CC[PH+](c2ccccc2)c2ccccc2)c2ccccc2)c2ccccc2)c2ccccc2)cc1 (stereo unspecified) | > 6.17 | > 6.17 µM | – |
| COc1cc2c(cc1OC)C(CN)C2 (stereo unspecified) | > 1070 | 30.9 µM and 20 µM | – |
| O=C1CSC(/C(=N/Nc2ccccc2)c2nc3ccccc3[nH]2)=N1 | > 15.5 | > 15.5 µM | – |
| S=c1nc(-c2ccnc(-c3nc(=S)[nH][nH]3)c2)[nH][nH]1 | > 25.7 | > 25.7 µM | – |
| COc1ccc(/C=c2/s/c(=C(\C#N)c3nc4ccccc4[nH]3)n(-c3ccccc3)c2=O)cc1 | > 200 | 37.2 µM | – |
| O=C(O)[C@@H]1CCS(=O)(=O)N1 | > 200 | > 200 µM | – |
| Nc1c(CCc2ccccn2)ccc2ccccc12 | > 200 | 166 µM | – |
| COc1ccc(/C=c2\sc3nc(-c4ccccc4)nn3c2=O)cc1 | 182 | 195 µM | – |
| NC(=O)c1[nH]cnc1/N=N/SCC(N)C(=O)O (stereo unspecified) | > 200 | 0.794 µM | – |
| O=C(NCCCCCCNC(=O)c1cnc2ccccc2n1)c1cnc2ccccc2n1 | > 83.2 | > 83.2 µM | – |
| O=C1/C(=C/c2cc(O)c(O)c(O)c2)Oc2cc(O)cc(OC3OC(CO)C(O)C(O)C3O)c21 (stereo unspecified) | – | – | inactive |
| CCCCCCCCCCCCCCCC=C(c1cc(Br)cc(C(=O)O)c1OC)c1cc(Br)cc(C(=O)O)c1OC | > 1070 | 24 µM | – |
| O=C(O)c1cnc2c(ccc3[nH]cccc32)c1=O | > 75.9 | > 75.9 µM | – |
| O=C(/C=C/c1ccc(O)cc1)c1ccc2c(c1)OCO2 | > 200 | 33.1 µM | – |
| O=[N+]([O-])c1cccc(/C=N/NC2=CS(=O)(=O)C=C2)c1 | > 67.6 | > 67.6 µM | – |
| N=C(N)n1ncc(Cl)c(Cl)c1=O | > 91.2 | 0.407 µM | – |
| CC1(C)OC2=C(CC1Br)C(=O)C(=O)c1ccccc12 (stereo unspecified) | > 2 | 1.26 µM | – |
| CC(C)C1COC(C(C)(C)C2=N[C@@H](C(C)C)CO2)=N1 (stereo partly specified) | > 251 | 135 µM | – |
